Where “and” joins values, the source holds several entries; their conditions need not be identical. Equal values may be shown once.

The test has as its system 653999-131-R-J2-PDC complex spheroids, growth % test/control. Kind of test: Anticancer human tumor 653999-131-R-J2-PDC patient-derived lung adenocarcinoma cell line growth inhibition [AhR]. Particulars: for viability, T/C: stronger effect = lower value. From the text:
Multicellular complex tumor spheroid response to aryl hydrocarbon receptor antagonists in combination with a variety of drugs and investigational agents in selected tumor cell lines
The current study was undertaken to assess response to aryl hydrocarbon receptor antagonists in combination with standard-of-care drugs and investigational agents in solid tumor complex spheroid models. Complex spheroids include a stromal component modeled by human endothelial cells (HUVEC) and fibroblasts modeled by human mesenchymal stem cells (MSCs). The concentration ranges selected for each drug and investigational agent were based upon clinically achievable concentrations if the clinical Cmax of the agent was known.
Compounds. The drugs and investigational agents: BAY 2416964 (NSC825713), GNF351 (NSC835774), CH-223191 (NSC835775), CPI-455 (NSC825282), aza-TdCyd (NSC777586), decitabine (NSC127716), belinostat (NSC758774), entinostat (NSC756642), pevonedistat (NSC761192), tazemetostat (NSC777109), talazoparib (NSC765396), olaparib (NSC753686), selinexor (NSC780203), nedisertib (M3814, NSC802822), bortezomib (NSC756655), venetoclax (NSC766270), doxorubicin (NSC123127), elimusertib (BAY189344, NSC800525), ceralasertib (AZD6738, NSC777638), TAK-243 (NSC785004), alisertib (NSC759677), etoposide (NSC141540), topotecan (NSC609699), eribulin (NSC707389), gemcitabine (NSC613327), carboplatin (NSC241240), cisplatin (NSC119875), and SN-38 (NSC673596) were obtained from the National Cancer Institute (NCI) Developmental Therapeutics Program Chemical Repository (32). The FDA-approved anticancer drug set is available from the Developmental Therapeutics Program at https://dtp.cancer.gov/organization/dscb/obtaining/available plates.htm. […] The stock solutions were prepared in dimethyl sulfoxide (DMSO, Sigma-Aldrich, St. Louis, MO, cat. D2650), except for the platinum compounds which were prepared in saline (Quality Biological, Gaithersburg, MD, cat. 114-055-101), at 800-fold the tested concentration and stored at -70 degrees C prior to their use. All drugs and investigational agents were tested over a range starting from a high concentration at or near the clinical Cmax and decreasing in half-log increments. If the clinical Cmax for an agent had not been determined, the highest concentration tested was 10 microM (Table 1).
Cell Culture. All cells were maintained in an incubator at 37 degrees C and 5% CO2 with 95% humidity. The PDC lines were cultured according to standard operating procedures established by the NCI PDMR (https://pdmr.cancer.gov). Briefly, all PDCs were thawed and cultured in Matrigel-coated flasks prepared with a working solution of 1X Ham's F-12 nutrient mix, without supplementation (Invitrogen, Waltham, MA, cat. 11765054), 100 U/mL penicillin-streptomycin (Invitrogen, cat. 15140122), and 2.5% Matrigel (Corning Inc., Corning, NY, cat. 354248) for the first three passages. All PDCs were cultured in complete DMEM/F-12 media containing advanced DMEM/F-12 (Invitrogen, cat. 12634028), 4.9% defined fetal bovine serum, heat inactivated (HyClone Laboratories Inc., Logan, UT, cat. SH30070.03HI), 389 ng/mL hydrocortisone (Sigma-Aldrich, cat. H4001), 9.7 ng/mL human EGF recombinant protein (Invitrogen, cat. PHG0313), 23.4 microg/mL adenine (Sigma-Aldrich, cat. A2786), 97.3 U/mL penicillin-streptomycin (Invitrogen, cat. 15140122), 1.9 mM L-glutamine (Invitrogen, cat. 25030081), and 9.7 microM Y-27632 dihydrochloride (Tocris Bioscience, Bristol, United Kingdom, cat. 1254). The PDCs were cultured in complete DMEM/F12 media without 10 microM Y-27632 dihydrochloride for at least two passages prior to the screen. The established cell lines NCI-H1341 and […] were cultured in DMEM/F-12, HEPES (Invitrogen, cat. 11330032), 5% defined fetal bovine serum (HyClone Laboratories Inc., cat. SH30070.03), ITS premix universal culture supplement [insulin (5 microg/mL), transferrin (5 microg/mL), and selenious acid (5 ng/mL)] […]
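Note: spheroids exposed to agents for seven days.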

`COc1ccc([C@@H](O)c2cc(-c3ncnc4cc(N5CCOCC5)ccc34)c(F)cc2Cl)nn1` + CC(CO)NC(=O)c1cc(-c2ccc(Cl)cc2)nn(-c2cnn(C)c2)c1=O: the IC50 (commonly the concentration at which inhibition is half-maximal) amounted to 8.45 µM (curve of first compound, second compound 0.1 µM); 7.79 µM (curve of first compound, second compound 0.316 µM); 8.13 µM (curve of first compound, second compound 1 µM); 7 µM (curve of first compound, second compound 3.16 µM); 6.94 µM (curve of first compound, second compound 10 µM). Besides, the viability, T/C (in general, the result in the treated group divided by that in the control group, in per cent) is, setting by setting: (second compound 0.1 µM, first compound 0.0316 µM) 91.5%; (second compound 0.1 µM, first compound 0.1 µM) 86.9%; (second compound 0.1 µM, first compound 0.316 µM) 85.4%; (second compound 0.1 µM, first compound 1 µM) 73.6%; (second compound 0.1 µM, first compound 3.16 µM) 63.9%; (second compound 0.1 µM, first compound 10 µM) 47.6%. For the same molecule, the viability, T/C is, setting by setting: (second compound 0.316 µM, first compound 0.0316 µM) 89.9%; (second compound 0.316 µM, first compound 0.1 µM) 90.2%; (second compound 0.316 µM, first compound 0.316 µM) 87.8%; (second compound 0.316 µM, first compound 1 µM) 80%; (second compound 0.316 µM, first compound 3.16 µM) 66.8%; (second compound 0.316 µM, first compound 10 µM) 45.2%. In addition, the viability, T/C is 90.4% (second compound 1 µM, first compound 0.0316 µM); 95.4% (second compound 1 µM, first compound 0.1 µM); 95.2% (second compound 1 µM, first compound 0.316 µM); 84.5% (second compound 1 µM, first compound 1 µM); 65.4% (second compound 1 µM, first compound 3.16 µM); 46.6% (second compound 1 µM, first compound 10 µM). Further, the viability, T/C (second compound 3.16 µM, first compound 0.0316 µM) is 96%; the viability, T/C (second compound 3.16 µM, first compound 0.1 µM) was 96.8%; the viability, T/C (second compound 3.16 µM, first compound 0.316 µM) was 100%; the viability, T/C (second compound 3.16 µM, first compound 1 µM) was 77.4%; the viability, T/C (second compound 3.16 µM, first compound 3.16 µM) was 60.3%; the viability, T/C (second compound 3.16 µM, first compound 10 µM) was 45.4%. In addition, the viability, T/C by setting is: (second compound 10 µM, first compound 0.0316 µM) 90%; (second compound 10 µM, first compound 0.1 µM) 95.3%; (second compound 10 µM, first compound 0.316 µM) 90.8%; (second compound 10 µM, first compound 1 µM) 75.3%; (second compound 10 µM, first compound 3.16 µM) 59.5%; (second compound 10 µM, first compound 10 µM) 45.6%.
With `COc1cc(C2c3cc4c(cc3C(OC3OC5COC(C)OC5C(O)C3O)C3COC(=O)C23)OCO4)cc(OC)c1O` (configuration not stated), the viability, T/C (compound 0.0316 µM) is 99.2% and 89.8% and 87.8%; the viability, T/C (compound 0.1 µM) was 79.3% and 77.8% and 77.9%; the viability, T/C (compound 0.316 µM) is 61.9% and 67.7% and 69.8%; the viability, T/C (compound 1 µM) is 49.1% and 55.2% and 50.4%; the viability, T/C (compound 3.16 µM) is 39.3% and 43.3% and 43.5%; the viability, T/C (compound 10 µM) is 29.4% and 25.6% and 27.5%. Also, the IC50 (curve of compound) was 0.924 µM and 1.56 µM and 1.45 µM.

(Values after PubChem BioAssay AID1919000 (Molecular Pharmacology Branch, DTP, NCI, 2023).)
